Results reported in patent US20230303556A1, “PIPERAZINE SUBSTITUTED INDAZOLE COMPOUNDS AS INHIBITORS OF PARG” (IDEAYA BIOSCIENCES, INC., priority 2022, published 2023).
In brackets after ≈: the same amount, converted by molar mass. Where two headings read alike, the source gives them in different places.

Assays:
hPARG = hPARG (Homo sapiens (Human), UniProt Q86W56); assay: Inhibition of PARG enzymatic assay (TR-FRET); format: biochemical; conditions: geometric mean; 1 hr compound/enzyme pre-incubation
hPARG, sequence (Q86W56 whole entry): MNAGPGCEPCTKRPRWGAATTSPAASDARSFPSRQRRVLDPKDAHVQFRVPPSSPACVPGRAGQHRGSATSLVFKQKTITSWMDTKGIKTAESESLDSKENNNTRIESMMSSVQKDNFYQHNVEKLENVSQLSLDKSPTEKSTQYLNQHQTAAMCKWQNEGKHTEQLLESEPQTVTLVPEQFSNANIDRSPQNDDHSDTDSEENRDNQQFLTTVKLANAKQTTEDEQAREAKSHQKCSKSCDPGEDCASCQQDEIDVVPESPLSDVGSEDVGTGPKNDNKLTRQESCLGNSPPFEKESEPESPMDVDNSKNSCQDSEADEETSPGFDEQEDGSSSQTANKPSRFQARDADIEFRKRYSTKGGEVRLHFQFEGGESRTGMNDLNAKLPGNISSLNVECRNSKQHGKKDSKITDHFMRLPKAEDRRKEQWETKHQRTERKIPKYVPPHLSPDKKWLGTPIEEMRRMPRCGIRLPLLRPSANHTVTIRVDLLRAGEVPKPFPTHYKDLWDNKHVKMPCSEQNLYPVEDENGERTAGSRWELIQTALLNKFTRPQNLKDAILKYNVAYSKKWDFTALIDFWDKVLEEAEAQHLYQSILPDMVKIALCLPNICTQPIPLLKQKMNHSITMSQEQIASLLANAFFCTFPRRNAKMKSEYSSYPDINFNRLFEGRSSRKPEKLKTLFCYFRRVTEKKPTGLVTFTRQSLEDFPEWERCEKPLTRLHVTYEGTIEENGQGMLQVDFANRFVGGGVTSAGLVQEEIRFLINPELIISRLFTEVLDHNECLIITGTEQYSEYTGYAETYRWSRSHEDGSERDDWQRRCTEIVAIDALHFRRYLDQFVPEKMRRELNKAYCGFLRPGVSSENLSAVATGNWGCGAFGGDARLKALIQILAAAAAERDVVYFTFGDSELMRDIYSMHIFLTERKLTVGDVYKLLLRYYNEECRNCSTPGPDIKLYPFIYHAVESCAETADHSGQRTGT
Description: PARG enzyme was incubated with compound or vehicle (DMSO) and the biotinylated-PARylated PARP-1 substrate in a microtiter plate. After adding detection antibody and streptavidin-europium, and then incubating, the plate was read for fluorescence intensity. The low control (DMSO) with low fluorescence intensity represents no inhibition of enzymatic activity, while the high control (no enzyme) with high fluorescence intensity represents full inhibition of enzymatic activity.
• 0% inhibition: DMSO • 100% inhibition: No enzyme Enzyme reaction and Detection: • 1. Transfer 200 nL of 100× compound or DMSO to the appropriate wells of a 384 well white polystyrene microtitre plate (Corning Catalog #3574). • 2. Transfer 10 uL of 2× final concentration of enzyme in assay buffer or assay buffer alone to the appropriate wells. • 3. Centrifuge the plate at 1000 rpm for 30 seconds. • 4. Incubate the plate at room temperature for 1 hour. • 5. Transfer 10 uL of 2× substrate in assay buffer to all test wells. • 6. Incubate the plate at room temperature for 10 minutes • 7. Transfer 10 uL of 3× mixture of 42 nM detection antibody and 2.25 nM streptavidin-europium in 50 mM Tris-HCL pH 7.4 to all test wells. • 8. Incubate the plate at room temperature for 1 hour. • 9. Read the plate on a plate reader (Envision) • Excitation: 317 nm • Emission: 620 nm • Emission: 665 nm
EC50 values were calculated in Collaborative Drug Discovery vault (CDD). Curves were fitted by CDD as response (%) vs compound concentration (uM) using a 4-parameter inhibition model using Formula 1.
(§1) Fit=(A+((B−A)/(1+((C/x)^D))))

RMUGS-NucLight Red cells = assay: Cellular viability assay, RMUGS-NucLight Red; format: cell-based; conditions: 168 h, 7 days incubation, geometric mean
Description: (§2) The ability of the compounds disclosed herein to inhibit PARG was determined in the following two cell lines: RMUGS-NucLight Red and SNU601-NucLight Red. RMUGS-NucLight Red and SNU601-NucLight Red cells were generated by stably transducing parental cells (RMUGS-JCRB Cell Bank, Cat no: IF050320; SNU601-Korean Cell Line Bank, Cat no:00601) with Incucyte® NucLight Red lentivirus (Sartorius, Cat no: 4476). Described below are the protocols followed for both the cell lines.
(§3) The cells were plated at 1000 cells/well in a 96-well black plate with clear flat bottom. After 24 hours, the plates were imaged using the Incucyte® S3 Live-Cell Analysis system and the number of live cells in each well (Day 0) was counted. Test compounds were then added by Tecan digital dispenser to generate a 9 point dose curve with a 3 fold dilution and 10 uM top concentration. All treatments were done in duplicates. After 7 days of incubation, the plates were imaged using the Incucyte® S3 system and the number of live cells per well (Day 7) was counted. For every well on the plate, the live cell counts on day 7 was normalized to the cell counts from day 0 (Day 7/Day 0). Average values of DMSO treated wells in a plate were calculated. All the data points were normalized to that of the average DMSO value. The % of control for each sample was compared to DMSO treated control samples. EC5 values were calculated in Collaborative Drug Discovery vault (CDD). Curves were fitted by CDD as % of control vs. log [compound concentration] using a 4-parameter inhibition model (Levenberg-Marquardt algorithm):
as §1

[1] = Kinetic solubility in PBS pH 2.0 and pH 7.4; format: physicochemical; conditions: aqueous buffer, kinetic from dmso stock, * n <3 runs
Description: • Control compound diclofenac sodium (LOT #BCBW9128) was purchased from Sigma Chemical Co. • 1.5 mL glass flat bottom vials (BioTech Solutions) • Molded PTFE/SIL plugs (BioTech Solutions) • PTFE encapsulated stir stick (V&P Scientific) • MultiScreenHTS HV (0.45 μm) 96 well plate (Millipore, MSHVN4510 or MSHVN4550) • Eppendorf Thermomixer Comfort • Vacuum Manifold ORVMN96. • PBS pH 2.0 and pH 7.4 was prepared in our laboratory
• diclofenac sodium (LOT #BCBW9128), Sigma Chemical Co.
• 1. Preparation of stock solutions. The stock solutions of test compounds and control compound diclofenac sodium were prepared in DMSO at the concentration of 30 mM and 10 mM, respectively. • 2. Procedure for solubility determination. 10 μL of stock solutions (30 mM) of test compounds was placed in order into their proper 96-well rack, 20 μL of DMSO and 970 μL of PBS pH 2.0 or pH 7.4 was added into each vial of the cap-less Solubility Sample plate; 30 μL of stock solution (10 mM) of control compound was placed in order into its proper 96-well rack, 970 μL of PBS pH 2.0 or pH 7.4 was added into each vial of the cap-less Solubility Sample plate. The assay was performed in duplicate. One stir stick was added to each vial and seal using a molded PTFE/Silicone plug. Then the Solubility Sample plate was transferred to the Eppendorf Thermomixer Comfort plate shaker and shaken at 25° C. at 1100 RPM for 24 hours. After completion of the 24 hours, plugs were removed and the stir sticks were removed using a big magnet, the samples from the Solubility Sample plate were transferred into the filter plate. Using the Vacuum Manifold, all the samples were filtered. Aliquot of 10 μL was taken from the filtrate followed by addition of 990 μL of a mixture of H2O and acetonitrile (1:1 in v/v). 200 μL of diluent was transferred to a new 96-well plate for LC-MS/MS analysis. The dilution factor was changed according to the solubility values and the LC-MS signal response. • 3. Preparation of 3 μM standards (STD). From the 10 mM or 30 mM DMSO STD plate, 15 μL or 5 μL was transferred into the remaining empty plate, and then 485 μL or 495 μL of DMSO was added to that plate to have a STD concentration of 300 μM. From the 300 μM DMSO STD plate, 5 μL was transferred into the remaining empty plate, and then 495 μL of a mixture of H2O and acetonitrile (1:1 in v/v) was added to that plate to have a final STD concentration of 3 μM. 200 μL of diluent was transferred to a new 96-well plate for LC-MS/MS analysis. The concentrations of the standard samples were changed according to the LC-MS signal response. • 4. Procedure for sample analysis. The plate was placed into the well plate autosampler. The samples were evaluated by LC-MS/MS analysis.

[2] = tested on: SNU601-NucLight Red cells; assay: Cellular viability assay, SNU601-NucLight Red; format: cell-based; conditions: SNU-601, 168 h, 7 days incubation, geometric mean
Description: as §2
as §3, with “200” for “1000”, “384-well” for “96-well”, “triplicates.” for “duplicates.”, “EC50” for “EC5”
as §1
When clear bi-phasic behavior was observed on the resulting data the EC50 was calculated in GraphPad Prism Software for the major fraction of the response using the following formula:
Section1=Span*Frac/(1+10^((Log EC50_1−X)*nH1))
Section2=Span*(1−Frac)/(1+10^((Log EC50_2−X)*nH2))

[3] = PBS pH 2.0, 25° C., read-out: Kinetic Solubility pH 2.0
[4] = PBS pH 7.4, 25° C., read-out: Kinetic Solubility pH 7.4

Row | SMILES | EC50 (hPARG) | EC50 (RMUGS-NucLight Red cells) | solubility kinetic at 24 h [1, 3] | solubility kinetic at 24 h [1, 4] | EC50 [2]
1 | CC(C)C(=O)N1CCN(c2cc(S(=O)(=O)NC3(C#N)CC3)cc3c2cnn3-c2nnc(C(F)F)s2)C[C@H]1C | 39 nM | 75 nM | 2.1 µM (≈ 1.19 µg/mL) | 5.6 µM (≈ 3.16 µg/mL) | 146 nM
2 | CN(C)C(=O)N1CCN(c2cc(S(=O)(=O)NC3(C)CC3)cc3c2cnn3-c2nnc(C(F)F)s2)CC1 | 7.3 nM | 8.3 nM | 0.2 µM (≈ 0.108 µg/mL) | 0.3 µM (≈ 0.162 µg/mL) | 36 nM
3 | C[C@@H]1CN(c2cc(S(=O)(=O)NC3(C)CC3)cc3c2cnn3-c2nnc(C(F)F)s2)C[C@H](C)N1 | 15 nM | 11 nM | 271 µM (≈ 135 µg/mL) | 31 µM (≈ 15.4 µg/mL) | 27 nM
4 | C[C@H]1CN(c2cc(S(=O)(=O)NC3(C)CC3)cc3c2cnn3-c2nnc(C(F)F)s2)C[C@H](C)N1 [drawing 29] | 1.9 nM | 4.2 nM | 282 µM (≈ 140 µg/mL) | 42 µM (≈ 20.9 µg/mL) | 11 nM
5 | CC(C)C(=O)N1CCN(c2cc(S(=O)(=O)NC3(C#N)CC3)cc3c2cnn3-c2nnc(C(F)F)s2)C[C@@H]1C | 76 nM | 137 nM | 3.4 µM (≈ 1.92 µg/mL) | 8 µM (≈ 4.52 µg/mL) | 184 nM
6 | CC(C)C(=O)N1[C@H](C)CN(c2cc(S(=O)(=O)NC3(C#N)CC3)cc3c2cnn3-c2nnc(C(F)F)s2)C[C@@H]1C | 79 nM | 101 nM | < 0.03 µM | < 0.03 µM | 178 nM
7 | C[C@@H]1CN(c2cc(S(=O)(=O)NC3(C#N)CC3)cc3c2cnn3-c2nnc(C(F)F)s2)CCN1C(=O)N(C)C | 9.9 nM | 60 nM | 7.2 µM (≈ 4.07 µg/mL) | 14 µM (≈ 7.92 µg/mL) | 84 nM
8 | C[C@@H]1CN(c2cc(S(=O)(=O)NC3(C)CC3)cc3c2cnn3-c2nnc(C(F)F)s2)C[C@@H](C)N1 | 51 nM | 32 nM | 261 µM (≈ 130 µg/mL) | 41 µM (≈ 20.4 µg/mL) | 89 nM
9 | CN1CCN(c2cc(S(=O)(=O)NC3(C#N)CC3)cc3c2cnn3-c2nnc(C(F)F)s2)CC1 | 201 nM | 439 nM | 289 µM (≈ 143 µg/mL) | 2.7 µM (≈ 1.34 µg/mL) | 1580 nM
10 | C[C@H]1CN(c2cc(S(=O)(=O)NC3(C#N)CC3)cc3c2cnn3-c2nnc(C(F)F)s2)CCN1C(=O)N(C)C | 14 nM | 77 nM | 7.8 µM (≈ 4.41 µg/mL) | 14 µM (≈ 7.92 µg/mL) | 110 nM
11 | CN(C)C(=O)N1CCN(c2cc(S(=O)(=O)NC3(C#N)CC3)cc3c2cnn3-c2nnc(C(F)F)s2)CC1 | 6.6 nM | 49 nM | 1 µM (≈ 0.552 µg/mL) | 1.4 µM (≈ 0.772 µg/mL) | 81 nM
12 | Cc1nnc(-n2ccc3ccc(S(=O)(=O)NC4(C)CC4)cc32)s1 | > 10000 nM | > 10000 nM | 29 µM (≈ 10.1 µg/mL) | 24 µM (≈ 8.36 µg/mL) | > 10000 nM
13 | CC(C)C(=O)N1CCN(c2cc(S(=O)(=O)NC3(C#N)CC3)cc3c2cnn3-c2nnc(C(F)F)s2)CC1 | 19 nM | 64 nM | 1.1 µM (≈ 0.606 µg/mL) | 2.1 µM (≈ 1.16 µg/mL) | 104 nM
